{"source": "BindingDB's records for doi:10.1016/j.ejmech.2021.113604", "about": "(China Pharmaceutical University, 2021)", "key": {"[1]": {"biological_target": "Heat shock protein HSP 90-alpha (Homo sapiens, UniProt P07900)", "assay": "Binding affinity to His-tagged human N-terminal HSP90alpha (1 to 236 residues) expressed in Escherichia coli BL21 (DE3) assessed as dissociation constant at 1.1 to 30 uM measured by BLI assay"}, "Endoplasmin": {"biological_target": "Endoplasmin (Canis lupus familiaris, UniProt P41148)", "sequence (P41148 whole entry, the tested form may be a part)": "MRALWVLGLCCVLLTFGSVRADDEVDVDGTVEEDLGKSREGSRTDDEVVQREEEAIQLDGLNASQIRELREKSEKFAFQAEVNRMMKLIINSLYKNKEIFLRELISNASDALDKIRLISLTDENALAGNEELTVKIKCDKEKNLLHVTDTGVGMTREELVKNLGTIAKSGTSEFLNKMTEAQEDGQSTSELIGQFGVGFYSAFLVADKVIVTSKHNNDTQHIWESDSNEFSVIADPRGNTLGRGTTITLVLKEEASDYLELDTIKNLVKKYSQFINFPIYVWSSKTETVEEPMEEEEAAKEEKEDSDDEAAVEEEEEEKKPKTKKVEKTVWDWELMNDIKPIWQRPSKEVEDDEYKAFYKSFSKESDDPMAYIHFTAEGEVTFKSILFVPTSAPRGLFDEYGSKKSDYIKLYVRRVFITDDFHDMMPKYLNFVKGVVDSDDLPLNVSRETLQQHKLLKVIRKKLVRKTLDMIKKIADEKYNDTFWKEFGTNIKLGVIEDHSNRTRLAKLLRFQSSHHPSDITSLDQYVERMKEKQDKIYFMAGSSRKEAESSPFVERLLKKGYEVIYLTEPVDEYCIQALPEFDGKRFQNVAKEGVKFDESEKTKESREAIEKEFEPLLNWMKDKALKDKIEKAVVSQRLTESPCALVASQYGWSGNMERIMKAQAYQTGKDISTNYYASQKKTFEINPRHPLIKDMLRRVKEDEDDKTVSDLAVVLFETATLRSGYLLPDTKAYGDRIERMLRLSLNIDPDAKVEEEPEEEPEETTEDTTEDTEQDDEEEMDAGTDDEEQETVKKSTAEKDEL", "assay": "Binding affinity to GST-tagged dog GRP94 (69 to 337 residues) expressed in Escherichia coli BL21 (DE3) assessed as dissociation constant at 0.37 to 10 uM measured by BLI assay"}}, "data": [{"smiles": "CCCCC#Cc1ccc(N[C@H]2CC[C@H](O)CC2)c(C(N)=O)c1", "values": [{"measurement": "koff", "setting": "[1]", "result": 0.114, "unit": "s⁻¹"}, {"measurement": "koff", "setting": "Endoplasmin", "result": 0.0284, "unit": "s⁻¹"}]}]}
